The assay deals with T1, MALT1 (Homo sapiens, UniProt Q9UDY8).
T1 sequence (Q9UDY8 1-824): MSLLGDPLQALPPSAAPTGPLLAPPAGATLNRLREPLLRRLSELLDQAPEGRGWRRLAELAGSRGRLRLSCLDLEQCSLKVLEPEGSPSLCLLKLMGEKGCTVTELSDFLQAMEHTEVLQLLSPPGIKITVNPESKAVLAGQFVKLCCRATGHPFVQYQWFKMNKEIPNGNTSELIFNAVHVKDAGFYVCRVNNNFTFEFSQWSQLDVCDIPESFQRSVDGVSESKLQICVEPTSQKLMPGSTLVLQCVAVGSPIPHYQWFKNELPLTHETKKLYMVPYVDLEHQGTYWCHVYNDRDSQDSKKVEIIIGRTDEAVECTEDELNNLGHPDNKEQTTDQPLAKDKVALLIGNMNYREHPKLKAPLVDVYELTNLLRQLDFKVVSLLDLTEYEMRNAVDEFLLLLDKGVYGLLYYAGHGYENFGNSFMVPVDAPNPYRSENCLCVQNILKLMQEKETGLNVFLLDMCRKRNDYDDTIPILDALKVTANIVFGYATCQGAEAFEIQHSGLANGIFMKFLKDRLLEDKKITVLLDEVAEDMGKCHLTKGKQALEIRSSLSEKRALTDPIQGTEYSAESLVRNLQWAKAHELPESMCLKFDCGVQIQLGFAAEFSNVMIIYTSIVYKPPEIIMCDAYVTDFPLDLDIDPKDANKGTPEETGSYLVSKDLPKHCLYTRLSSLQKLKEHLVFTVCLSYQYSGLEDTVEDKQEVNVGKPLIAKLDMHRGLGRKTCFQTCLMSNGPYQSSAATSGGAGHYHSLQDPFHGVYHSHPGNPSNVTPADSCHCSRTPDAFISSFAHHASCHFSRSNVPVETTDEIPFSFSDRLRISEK
Kind of assay: MALT1 degradation assay (Western blot) in OCI-Ly3 cells. It is filed as cell-based. The note with it: 48 hours, normalized to Actin, relative to vehicle treated cells. On the set-up: endogenous in cells; host or cells: OCI-Ly3. As to the method: In the experiments, OCI-Ly3 cells were grown for 6 hours in the presence of the indicated concentrations of Examples 1-6, 9, and 10. Proteins were extracted, analyzed by Western blot, and membranes were immunoblotted for MALT1, CRBN, and Actin. Table 3 provides the results of experimental data obtained from the example compounds of the present disclosure. In particular, OCI-Ly3 cells were grown for 48 hours in the presence of the indicated concentrations of Examples 1-19. Proteins were extracted, analyzed by Western blot, and membranes were immunoblotted for MALT1, CRBN, and Actin. Western blot bands were quantified using Image Lab software. Results were normalized to Actin expression and presented as % MALT1 degradation relative to vehicle treated cells.

Where [1] appears, read: read-out: % MALT1 Degradation at 1 μM.

Like-named read-outs stand apart in the source and are kept apart here.

Regarding `CO[C@@H](C)c1c(NC(=O)Nc2cnc(-n3cc(CNC(=O)CCOCCOCCOCCOCCC(=O)N[C@H](C(=O)N4C[C@H](O)CC4C(=O)NCc4ccc(-c5scnc5C)cc4)C(C)(C)C)cn3)c(Cl)c2)cnc2cc(Cl)nn12` (stereo partly drawn) [Example 10], the “% MALT1 degradation at 1 µM” value is on record as “no degradation”. Consider `CO[C@@H](C)c1c(NC(=O)Nc2cc(Cl)cnc2OCCNC(=O)CCOCCOCCNc2cccc3c2CN(C2CCC(=O)NC2=O)C3=O)cnc2cc(Cl)nn12` (stereo partly drawn) [Example 6, N-(2-((5-Chloro-3-(3-(2-chloro-7-((S)-1-methoxyethyl)pyrazolo[1,5-a]pyrimidin-6-yl)ureido)pyridin-2-yl)oxy)ethyl)-3-(2-(2-((2-(2,6-dioxopiperidin-3-yl)-1-oxoisoindolin-4-yl)amino)ethoxy)ethoxy)propanamide], for which the % MALT1 degradation at 1 µM under setting [1] was above 50%. As for `CO[C@@H](C)c1c(NC(=O)Nc2cc(Cl)cnc2OCCNC(=O)CCOCCOCCOCCOCCOCCOCCNc2cccc3c2C(=O)N(C2CCC(=O)NC2=O)C3=O)cnc2cc(Cl)nn12` (stereo partly drawn) [Example 15, N-(2-((5-Chloro-3-(3-(2-chloro-7-((S)-1-methoxyethyl)pyrazolo[1,5-a]pyrimidin-6-yl)ureido)pyridin-2-yl)oxy)ethyl)-1-((2-(2,6-dioxopiperidin-3-yl)-1,3-dioxoisoindolin-4-yl)amino)-3,6,9,12,15,18-hexaoxahenicosan-21-amide], under setting [1], the % MALT1 degradation at 1 µM was above 50%. For the molecule `CO[C@@H](C)c1c(NC(=O)Nc2cc(Cl)cnc2OCCNC(=O)CCOCCOCCOCCOCCNc2cccc3c2CN(C2CCC(=O)NC2=O)C3=O)cnc2cc(Cl)nn12` (stereo partly drawn) [Example 11, N-(2-((5-Chloro-3-(3-(2-chloro-7-((S)-1-methoxyethyl)pyrazolo[1,5-a]pyrimidin-6-yl)ureido)pyridin-2-yl)oxy)ethyl)-1-((2-(2,6-dioxopiperidin-3-yl)-1-oxoisoindolin-4-yl)amino)-3,6,9,12-tetraoxapentadecan-15-amide], the % MALT1 degradation at 1 µM under setting [1] was above 50%. The same measure, in the same setting: as for `Cc1c(NC(=O)Nc2cnc(-n3cc(CNC(=O)CCOCCOCCNc4cccc5c4CN(C4CCC(=O)NC4=O)C5=O)cn3)c(Cl)c2)cnc2ccc(Br)cc12` (stereo not drawn) [Example 8, N-((1-(5-(3-(6-Bromo-4-methylquinolin-3-yl)ureido)-3-chloropyridin-2-yl)-1H-pyrazol-4-yl)methyl)-3-(2-(2-((2-(2,6-dioxopiperidin-3-yl)-1-oxoisoindolin-4-yl)amino)ethoxy)ethoxy)propanamide], the figure is 31 to 50%; as for `C[C@@H](c1c(NC(=O)Nc2cnc(-n3nccn3)c(Cl)c2)cnc2cc(Cl)nn12)N(C)C(=O)CCOCCOCCNc1cccc2c1CN(C1CCC(=O)NC1=O)C2=O` (stereo partly drawn) [Example 4, N—((S)-1-(2-Chloro-6-(3-(5-chloro-6-(2H-1,2,3-triazol-2-yl)pyridin-3-yl)ureido)pyrazolo[1,5-a]pyrimidin-7-yl)ethyl)-3-(2-(2-((2-(2,6-dioxopiperidin-3-yl)-1-oxoisoindolin-4-yl)amino)ethoxy)ethoxy)-N-methylpropanamide], 31 to 50%.

As to `CO[C@@H](C)c1c(NC(=O)Nc2cnc(-n3cc(CNC(=O)CCOCCOCCNc4cccc5c4CN(C4CCC(=O)NC4=O)C5=O)cn3)c(Cl)c2)cnc2cc(Cl)nn12` (stereo partly drawn) [Example 5, N-((1-(3-Chloro-5-(3-(2-chloro-7-((S)-1-methoxyethyl)pyrazolo[1,5-a]pyrimidin-6-yl)ureido)pyridin-2-yl)-1H-pyrazol-4-yl)methyl)-3-(2-(2-((2-(2,6-dioxopiperidin-3-yl)-1-oxoisoindolin-4-yl)amino)ethoxy)ethoxy)propanamide], the % MALT1 degradation at 1 µM under setting [1] lay within 10 to 30%. Still for that read-out and setting: as for `CO[C@@H](C)c1c(NC(=O)Nc2cc(Cl)cnc2OCCNC(=O)CCOCCOCCOCCOCCNc2cccc3c2C(=O)N(C2CCC(=O)NC2=O)C3=O)cnc2cc(Cl)nn12` (stereo partly drawn) [Example 3, N-(2-((5-Chloro-3-(3-(2-chloro-7-((S)-1-methoxyethyl)pyrazolo[1,5-a]pyrimidin-6-yl)ureido)pyridin-2-yl)oxy)ethyl)-1-((2-(2,6-dioxopiperidin-3-yl)-1,3-dioxoisoindolin-4-yl)amino)-3,6,9,12-tetraoxapentadecan-15-amide], the figure is above 50%; as for `C[C@@H](c1c(NC(=O)Nc2cnc(-n3nccn3)c(Cl)c2)cnc2cc(Cl)nn12)N(C)C(=O)CCOCCOCCOCCN1CCN(Cc2ccc(COc3cccc4c3CN([C@H]3CCC(=O)NC3=O)C4=O)cc2)CC1` [Example 17, N-((S)-1-(2-Chloro-6-(3-(5-chloro-6-(2H-1,2,3-triazol-2-yl)pyridin-3-yl)ureido)pyrazolo[1,5-a]pyrimidin-7-yl)ethyl)-3-(2-(2-(2-(4-(4-(((2-((S)-2,6-dioxopiperidin-3-yl)-1-oxoisoindolin-4-yl)oxy)methyl)benzyl)piperazin-1-yl)ethoxy)ethoxy)ethoxy)-N-methylpropanamide], above 50%. For the molecule `CO[C@@H](C)c1c(NC(=O)Nc2cc(Cl)cnc2OCCNC(=O)CCCCCCCCOc2cccc3c2C(=O)N(C2CCC(=O)NC2=O)C3=O)cnc2cc(Cl)nn12` (stereo partly drawn) [Example 16, N-(2-((5-Chloro-3-(3-(2-chloro-7-((S)-1-methoxyethyl)pyrazolo[1,5-a]pyrimidin-6-yl)ureido)pyridin-2-yl)oxy)ethyl)-9-((2-(2,6-dioxopiperidin-3-yl)-1,3-dioxoisoindolin-4-yl)oxy)nonanamide], the “% MALT1 degradation at 1 µM” value is listed as “no degradation”.

In the case of `CO[C@@H](C)c1c(NC(=O)Nc2cc(Cl)cnc2OCCNC(=O)CCOCCOCCNc2cccc3c2C(=O)N(C2CCC(=O)NC2=O)C3=O)cnc2cc(Cl)nn12` (stereo partly drawn) [Example 14, N-(2-((5-Chloro-3-(3-(2-chloro-7-((S)-1-methoxyethyl)pyrazolo[1,5-a]pyrimidin-6-yl)ureido)pyridin-2-yl)oxy)ethyl)-3-(2-(2-((2-(2,6-dioxopiperidin-3-yl)-1,3-dioxoisoindolin-4-yl)amino)ethoxy)ethoxy)propanamide], the % MALT1 degradation at 1 µM under setting [1] is above 50%. Consider `CO[C@@H](C)c1c(NC(=O)Nc2cc(Cl)cnc2OCCNC(=O)CCOCCOCCOCCOCCC(=O)N[C@H](C(=O)N2C[C@H](O)CC2C(=O)NCc2ccc(-c3scnc3C)cc2)C(C)(C)C)cnc2cc(Cl)nn12` (stereo partly drawn) [Example 9, N^1-(2-((5-Chloro-3-(3-(2-chloro-7-((S)-1-methoxyethyl)pyrazolo[1,5-a]pyrimidin-6-yl)ureido)pyridin-2-yl)oxy)ethyl)-N^16-((2S)-1-((4R)-4-hydroxy-2-((4-(4-methylthiazol-5-yl)benzyl)carbamoyl)pyrrolidin-1-yl)-3,3-dimethyl-1-oxobutan-2-yl)-4,7,10,13-tetraoxahexadecanediamide], for which the % MALT1 degradation at 1 µM under setting [1] is 10 to 30%. As for `CO[C@@H](C)c1c(NC(=O)Nc2cnc(-n3cc(CNC(=O)CCOCCOCCOCCOCCNc4cccc5c4C(=O)N(C4CCC(=O)NC4=O)C5=O)cn3)c(Cl)c2)cnc2cc(Cl)nn12` (stereo partly drawn) [Example 2, N-((1-(3-Chloro-5-(3-(2-chloro-7-((S)-1-methoxyethyl)pyrazolo[1,5-a]pyrimidin-6-yl)ureido)pyridin-2-yl)-1H-pyrazol-4-yl)methyl)-1-((2-(2,6-dioxopiperidin-3-yl)-1,3-dioxoisoindolin-4-yl)amino)-3,6,9,12-tetraoxapentadecan-15-amide], the % MALT1 degradation at 1 µM under setting [1] was above 50%.

With `CO[C@@H](C)c1c(NC(=O)Nc2cnc(-n3cc(CNC(=O)CCOCCOCCOCCN4CCN(Cc5ccc(COc6cccc7c6CN([C@H]6CCC(=O)NC6=O)C7=O)cc5)CC4)cn3)c(Cl)c2)cnc2cc(Cl)nn12` [Example 18, N-((1-(3-Chloro-5-(3-(2-chloro-7-((S)-1-methoxyethyl)pyrazolo[1,5-a]pyrimidin-6-yl)ureido)pyridin-2-yl)-1H-pyrazol-4-yl)methyl)-3-(2-(2-(2-(4-(4-(((2-((5)-2,6-dioxopiperidin-3-yl)-1-oxoisoindolin-4-yl)oxy)methyl)benzyl)piperazin-1-yl)ethoxy)ethoxy)ethoxy)propanamide], the “% MALT1 degradation at 1 µM” value is recorded as above 50%. In the case of `CC(C)c1c(NC(=O)Nc2cnc(-n3cc(CNC(=O)CCOCCOCCNc4cccc5c4CN(C4CCC(=O)NC4=O)C5=O)cn3)c(Cl)c2)cnc2cc(Cl)nn12` (stereo not drawn) [Example 7, N-((1-(3-Chloro-5-(3-(2-chloro-7-isopropylpyrazolo[1,5-a]pyrimidin-6-yl)ureido)pyridin-2-yl)-1H-pyrazol-4-yl)methyl)-3-(2-(2-((2-(2,6-dioxopiperidin-3-yl)-1-oxoisoindolin-4-yl)amino)ethoxy)ethoxy)propanamide], the % MALT1 degradation at 1 µM under setting [1] fell in the range of 31 to 50%.

The record behind these values is patent publication US10689366B2, “Compounds for MALT1 degredation” (Cornell University, priority 2016, dated 2020).
